Laboratory results reported in patent US20100221763A1, “Specific Acceptors for Transferases to Saccharides and Method for Obtaining and Using Same” (Health Research, Inc, priority 2005, published 2010).
Several values for one entry are separate records, joined by “and”; a condition that tells them apart may be missing. Identical values can stand only once.

Assays:
[1] = target: T1, Rat recombinant α2,6(N)ST (Rattus norvegicus, UniProt P13721); assay: Sialyltransferase assay with cloned α2,6(N)ST; format: biochemical; settings: Table I; acceptor 7.5 mM; 100% = 43500 CPM (Galβ1,4GlcNAcβ-O—Al)
T1 construct: purchased Calbiochem
T1 sequence (P13721 1-403): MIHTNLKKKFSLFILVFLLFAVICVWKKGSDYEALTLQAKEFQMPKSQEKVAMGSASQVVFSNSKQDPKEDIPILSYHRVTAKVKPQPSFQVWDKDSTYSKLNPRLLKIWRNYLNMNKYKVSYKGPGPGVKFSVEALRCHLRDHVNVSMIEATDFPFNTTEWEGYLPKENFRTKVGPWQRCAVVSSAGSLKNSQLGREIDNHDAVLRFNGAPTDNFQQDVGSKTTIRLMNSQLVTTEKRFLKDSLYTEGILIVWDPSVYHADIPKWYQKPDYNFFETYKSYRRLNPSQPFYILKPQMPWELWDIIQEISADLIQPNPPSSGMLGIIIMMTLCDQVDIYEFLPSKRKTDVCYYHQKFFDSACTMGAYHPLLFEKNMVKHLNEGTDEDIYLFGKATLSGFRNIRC

[2] = target: T2, Rat recombinant α2,3(O)ST (Rattus norvegicus, UniProt Q11205); assay: Sialyltransferase assay with cloned α2,3(O)ST; format: biochemical; settings: for Sialyltransferase activity (%) Cloned α2,3(O)ST: Table I, acceptor 7.5 mM, 100% = 40560 CPM (3-O-MeGalβ1,4GlcNAcβ1,6(Galβ1,3)GalNAcα-O-Bn); for Km / Vmax: CMP-NeuAc 150 μM, Lineweaver-Burke plot
T2 construct: purchased Calbiochem
T2 sequence (Q11205 1-350): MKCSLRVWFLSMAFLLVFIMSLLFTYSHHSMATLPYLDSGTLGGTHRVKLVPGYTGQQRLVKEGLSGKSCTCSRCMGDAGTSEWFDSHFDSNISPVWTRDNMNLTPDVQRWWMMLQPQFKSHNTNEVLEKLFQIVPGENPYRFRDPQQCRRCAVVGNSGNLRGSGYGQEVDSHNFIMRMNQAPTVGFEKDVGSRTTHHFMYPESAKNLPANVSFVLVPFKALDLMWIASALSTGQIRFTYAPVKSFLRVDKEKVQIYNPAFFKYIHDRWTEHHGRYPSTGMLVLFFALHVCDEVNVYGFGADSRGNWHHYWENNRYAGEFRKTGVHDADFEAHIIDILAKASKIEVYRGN

LNCaP α2,3(O)ST = assay: Sialyltransferase assay with LNCaP cell extract; format: biochemical, human; settings: Table I; acceptor 7.5 mM; 100% = 30930 CPM (3-O-MeGalβ1,4GlcNAcβ1,6(Galβ1,3)GalNAcα-O-Bn)
Summary of the method: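 LNCaP Triton X-100 extract (5 mg protein/ml; 0.1M Tris-maleate pH6.3) incubated with acceptor (typically 7.5 mM) and CMP-[9-3H]NeuAc (typically 0.2 μCi) in 0.1M Na cacodylate pH6.0, 2 h at 37 °C, in duplicate. Radioactive product separated on Dowex-1-formate, Sep-Pak C18 or Biogel P2 and counted by scintillation; blank without acceptor subtracted.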

SMILES | Sialyltransferase activity (%) Cloned α2,6(N)ST [1] | Sialyltransferase activity (%) Cloned α2,3(O)ST [2] | Sialyltransferase activity (%) LNCaP α2,3(O)ST (LNCaP α2,3(O)ST) | Km [2] | Vmax [2]
CO[C@H]1[C@H](O[C@H]2[C@H](O)[C@@H](NC(C)=O)C(O)O[C@@H]2CO)O[C@H](CO)[C@H](O)[C@@H]1O (some centres unmarked) [2-O-MeGalβ1,4GlcNAc] | 90.1% | 0.2% |  |  | 
CO[C@H]1[C@H](O[C@H]2[C@H](O)[C@@H](CO)OC(O)[C@@H]2NC(C)=O)O[C@H](CO)[C@H](O)[C@@H]1O (some centres unmarked) [2-O-MeGalβ1,3GlcNAc] | 3.7% | 2.9% |  |  | 
C=CCO[C@H]1O[C@H](CO)[C@H](O)[C@H](O[C@@H]2O[C@H](CO)[C@H](O)[C@H](O)[C@H]2O)[C@H]1NC(C)=O [Galβ1,3GalNAcα-O—Al] | 0.2% | 112.0% | 34.4% |  | 
CO[C@H]1O[C@H](CO)[C@H](O)[C@H](O[C@@H]2O[C@H](CO)[C@H](O)[C@H](O[C@@H]3O[C@H](C)[C@H](O)[C@H](O)[C@H]3O)[C@H]2NC(C)=O)[C@H]1O [D-Fucβ1,3GalNAcβ1,3Galα-O-Me] | 2.5% | 115.6^3% | 9.6% | 560 µM | 1873 pmol/h
CO[C@H]1O[C@H](CO)[C@H](O)[C@H](O[C@@H]2O[C@H](CO)[C@H](O)[C@H](O[C@@H]3O[C@H](CO)[C@H](O)[C@H](O)[C@H]3O)[C@H]2NC(C)=O)[C@H]1O [Galβ1,3GalNAcβ1,3Galα-O-Me] | 1.1% | 120.8% and 120.8^2% | 34.3% | 120 µM | 1293^13 pmol/h
